The source of these data is article PMC11089503, “Exploring Subsite Selectivity within Plasmodium vivaxN-Myristoyltransferase Using Pyrazole-Derived Inhibitors” (Journal of Medicinal Chemistry, 2024).

One experiment addresses T1, HsNMT Isoform 1 (Homo sapiens, UniProt P30419).
T1 sequence (P30419 1-496): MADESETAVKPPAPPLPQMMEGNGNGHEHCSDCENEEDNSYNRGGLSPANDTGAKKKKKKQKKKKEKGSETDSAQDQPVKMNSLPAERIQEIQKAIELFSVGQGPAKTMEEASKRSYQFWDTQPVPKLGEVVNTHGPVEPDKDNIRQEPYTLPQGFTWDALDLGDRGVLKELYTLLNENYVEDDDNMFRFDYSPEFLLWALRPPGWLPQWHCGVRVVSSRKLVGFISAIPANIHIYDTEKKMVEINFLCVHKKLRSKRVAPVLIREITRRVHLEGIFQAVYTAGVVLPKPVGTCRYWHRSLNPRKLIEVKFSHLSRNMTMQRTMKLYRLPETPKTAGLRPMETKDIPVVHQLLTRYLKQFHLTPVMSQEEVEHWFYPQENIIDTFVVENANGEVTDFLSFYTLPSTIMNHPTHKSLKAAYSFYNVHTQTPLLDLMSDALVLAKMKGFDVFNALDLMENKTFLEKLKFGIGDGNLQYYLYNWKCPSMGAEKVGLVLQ
As to the kind of experiment: NMT activity assay (CPM fluorescence detection of free CoA), HsNMT.

Experiment [1] addresses T2, PvNMT (Plasmodium vivax, UniProt A5K1A2). As to the kind of experiment: NMT activity assay (CPM fluorescence detection of free CoA), PvNMT.
For experiment [2], the target named is T2, PvNMT. The note with it: cited from earlier work.
The next experiment concerns HsNMT1/2. The arrangement: method as in PMID 29760414. The note with it: cited from earlier work.

Where two headings read alike, the source gives them in different places.

T2 sequence (A5K1A2 entry or part of it): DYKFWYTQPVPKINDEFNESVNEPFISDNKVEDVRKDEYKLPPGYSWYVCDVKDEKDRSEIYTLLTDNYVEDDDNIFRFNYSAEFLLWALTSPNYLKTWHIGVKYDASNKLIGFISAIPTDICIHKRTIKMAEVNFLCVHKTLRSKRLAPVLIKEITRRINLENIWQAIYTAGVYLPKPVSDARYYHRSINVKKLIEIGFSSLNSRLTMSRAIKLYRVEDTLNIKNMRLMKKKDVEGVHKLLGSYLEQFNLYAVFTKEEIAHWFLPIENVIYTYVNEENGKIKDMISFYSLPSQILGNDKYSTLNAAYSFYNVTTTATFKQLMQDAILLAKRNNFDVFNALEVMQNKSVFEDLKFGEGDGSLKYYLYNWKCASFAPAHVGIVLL

One may read the IC50 as the concentration that inhibits the measured activity by half. With `Cc1c(CCOc2ccccc2-c2ccnc(N3CCNCC3)c2)c(C(=O)Nc2cccnc2)nn1C` [Compound 8a, 1,5-Dimethyl-4-(2-(2-(2-(piperazin-1-yl)pyridin-4-yl)phenoxy)ethyl)-N-(pyridin-3-yl)-1H-pyrazole-3-carboxamide], the half-maximal inhibitory concentration (IC50) at HsNMT Isoform 1 stood at 2520 nM; on PvNMT [1] it was 506 nM.

Regarding `Cc1c(CCOc2ccccc2-c2ccnc(N3CCNCC3)c2)c(C(=O)N2CCOCC2)nn1C` [Compound 8b, (1,5-Dimethyl-4-(2-(2-(2-(piperazin-1-yl)pyridin-4-yl)phenoxy)ethyl)-1H-pyrazol-3-yl)(morpholino)methanone], the IC50 against HsNMT Isoform 1 was 763 nM; at PvNMT [1] it was 24 nM.

Take `Cc1c(CCOc2ccccc2-c2ccnc(N3CCNCC3)c2)c(C(=O)NCC(=O)O)nn1C` [Compound 8c, (1,5-Dimethyl-4-(2-(2-(2-(piperazin-1-yl)pyridin-4-yl)phenoxy)ethyl)-1H-pyrazole-3-carbonyl)glycine]: the IC50 came to 116 nM at HsNMT Isoform 1 and 147 nM on PvNMT [1].

As for `Cc1c(CCOc2ccccc2-c2ccnc(N3CCNCC3)c2)c(C(=O)NCCN)nn1C` [Compound 8f, N-(2-Aminoethyl)-1,5-dimethyl-4-(2-(2-(2-(piperazin-1-yl)pyridin-4-yl)phenoxy)ethyl)-1H-pyrazole-3-carboxamide], the figures for the IC50 at HsNMT Isoform 1 and at PvNMT [1] were 103 nM and 89 nM, respectively.

Consider `CC(=O)CNC(=O)c1nn(C)c(C)c1CCOc1ccccc1-c1ccnc(N2CCNCC2)c1` [Compound 8g, 1,5-Dimethyl-N-(2-oxopropyl)-4-(2-(2-(2-(piperazin-1-yl)pyridin-4-yl)phenoxy)ethyl)-1H-pyrazole-3-carboxamide], for which the concentration for half-maximal inhibition (IC50) turned out to be 1590 nM on HsNMT Isoform 1 and 32 nM against PvNMT [1]. Besides, the “SI (enzyme selectivity)” value at PvNMT [1] (calculated as HsNMT IC50/PvNMT IC50) is given as more than 31.

As for `Cc1c(CCOc2ccccc2-c2ccnc(N3CCNCC3)c2)c(C(=O)NCCO)nn1C` [Compound 8h, N-(2-Hydroxyethyl)-1,5-dimethyl-4-(2-(2-(2-(piperazin-1-yl)pyridin-4-yl)phenoxy)ethyl)-1H-pyrazole-3-carboxamide], the IC50 was determined as 504 nM against HsNMT Isoform 1 and 39 nM against PvNMT [1].

As for `COC(=O)CNC(=O)c1nn(C)c(C)c1CCOc1ccccc1-c1ccnc(N2CCNCC2)c1` [Compound 8i, Methyl (1,5-Dimethyl-4-(2-(2-(2-(piperazin-1-yl)pyridin-4-yl)phenoxy)ethyl)-1H-pyrazole-3-carbonyl)glycinate], the values for the IC50 at HsNMT Isoform 1 and on PvNMT [1] were 57 nM and 20 nM, respectively.

At PvNMT [1], `Cc1c(CCOc2cccnc2-c2ccnc(N3CCNCC3)c2)c(C(=O)Nc2cccnc2)nn1C` [Compound 9a, 1,5-Dimethyl-4-(2-((2′-(piperazin-1-yl)-[2,4′-bipyridin]-3-yl)oxy)ethyl)-N-(pyridin-3-yl)-1H-pyrazole-3-carboxamide] gave an IC50 of 1020 nM.

For the compound `Cc1c(CCOc2cccnc2-c2ccnc(N3CCNCC3)c2)c(C(=O)N2CCOCC2)nn1C` [Compound 9b, (1,5-Dimethyl-4-(2-((2′-(piperazin-1-yl)-[2,4′-bipyridin]-3-yl)oxy)ethyl)-1H-pyrazol-3-yl)(morpholino)methanone], the IC50 amounted to 1650 nM against HsNMT Isoform 1 and 46 nM on PvNMT [1].

As to `Cc1c(CCOc2cccnc2-c2ccnc(N3CCNCC3)c2)c(C(=O)NCC(=O)O)nn1C` [Compound 9c, (1,5-Dimethyl-4-(2-((2′-(piperazin-1-yl)-[2,4′-bipyridin]-3-yl)oxy)ethyl)-1H-pyrazole-3-carbonyl)glycine], the IC50 against HsNMT Isoform 1 is 11100 nM; at PvNMT [1], 230 nM.

For `Cc1c(CCOc2cccnc2-c2ccnc(N3CCNCC3)c2)c(C(=O)NCC(N)=O)nn1C` [Compound 9d, N-(2-Amino-2-oxoethyl)-1,5-dimethyl-4-(2-((2′-(piperazin-1-yl)-[2,4′-bipyridin]-3-yl)oxy)ethyl)-1H-pyrazole-3-carboxamide], the half-maximal inhibitory concentration (IC50) at HsNMT Isoform 1 came to 11000 nM; on PvNMT [1] it was 181 nM.

Regarding `Cc1c(CCOc2ccc3ccccc3c2-c2ccnc(N3CCNCC3)c2)c(C(=O)Nc2cccnc2)nn1C` [Compound 10a, 1,5-Dimethyl-4-(2-((1-(2-(piperazin-1-yl)pyridin-4-yl)naphthalen-2-yl)oxy)ethyl)-N-(pyridin-3-yl)-1H-pyrazole-3-carboxamide], inhibition against PvNMT [1] was half-maximal at 5070 nM (IC50).

As to `Cc1c(CCOc2ccc3ccccc3c2-c2ccnc(N3CCNCC3)c2)c(C(=O)N2CCOCC2)nn1C` [Compound 10b, (1,5-Dimethyl-4-(2-((1-(2-(piperazin-1-yl)pyridin-4-yl)naphthalen-2-yl)oxy)ethyl)-1H-pyrazol-3-yl)(morpholino)methanone], the IC50 was found to be 11400 nM against HsNMT Isoform 1 and 91 nM against PvNMT [1].

The compound `Cc1c(CCOc2ccc3ccccc3c2-c2ccnc(N3CCNCC3)c2)c(C(=O)NCC(=O)O)nn1C` [Compound 10c, (1,5-Dimethyl-4-(2-((1-(2-(piperazin-1-yl)pyridin-4-yl)naphthalen-2-yl)oxy)ethyl)-1H-pyrazole-3-carbonyl)glycine] had an IC50 on PvNMT [1] of 1060 nM.

In turn, `Cc1c(CCOc2ccc3ccccc3c2-c2ccnc(N3CCNCC3)c2)c(C(=O)NCC(N)=O)nn1C` [Compound 10d, N-(2-Amino-2-oxoethyl)-1,5-dimethyl-4-(2-((1-(2-(piperazin-1-yl)pyridin-4-yl)naphthalen-2-yl)oxy)ethyl)-1H-pyrazole-3-carboxamide] had an IC50 against PvNMT [1] of 1000 nM.

With `Cc1nn(C)c(C)c1CCOc1cc(F)ccc1-c1ccc2c(c1)c(CN(C)C)nn2C` [IMP-1002], the IC50 on PvNMT [2] was 3 nM.

In the case of `Cc1nn(C)c(C)c1CCOc1c(-c2ccc3c(c2)c(CN(C)C)nn3C)ccc(F)c1F` [IMP-1088], the “HsNMT1/2 IC50” value in the experiment with HsNMT1/2 is listed as “picomolar”.
